Activity calls are given as the source filed them.
Key:
[1] = inhibitors of intracellular T. cruzi replication, confirmation, NIH3T3 host cells, beta-gal luminescence (AID 2044); format: functional, cell-based;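 further: intracellular parasites grown in NIH/3T3 mouse fibroblasts as host cells; luminescent beta-galactosidase reporter signal from transgenic T. cruzi replicating inside host cells; inhibitors lower the luminescence signal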
[2] = cytotoxicity toward NIH3T3 fibroblasts, dose response, counter-screen, cell-based, ATP luminescence, mouse fibroblasts (AID 2010); format: functional;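 further: cells exposed to compound for about 90 hours before reading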
[3] = molecular target: Cytochrome P450 3A4 (Homo sapiens, UniProt P08684);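 further: CYP3A4 tested as one member of a cytochrome P450 panel screen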
[4] = tested on: INS1; assay: beta cell apoptosis inhibitors, cytokine rescue, dose response, luminescence, retest (AID 449756); format: functional, cell-based; conditions: Rattus norvegicus, INS1;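 further: cell death triggered by IL-1 beta plus TNF-alpha plus IFN-gamma mixture; protective hits raise ATP signal compared with cytokine alone wells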
[5] = molecular target: T1, Cytochrome P450 1A2 (Homo sapiens, UniProt P05177);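 further: PubChem cytochrome P450 panel assay, CYP1A2 panel member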
T1 sequence (P05177 whole entry): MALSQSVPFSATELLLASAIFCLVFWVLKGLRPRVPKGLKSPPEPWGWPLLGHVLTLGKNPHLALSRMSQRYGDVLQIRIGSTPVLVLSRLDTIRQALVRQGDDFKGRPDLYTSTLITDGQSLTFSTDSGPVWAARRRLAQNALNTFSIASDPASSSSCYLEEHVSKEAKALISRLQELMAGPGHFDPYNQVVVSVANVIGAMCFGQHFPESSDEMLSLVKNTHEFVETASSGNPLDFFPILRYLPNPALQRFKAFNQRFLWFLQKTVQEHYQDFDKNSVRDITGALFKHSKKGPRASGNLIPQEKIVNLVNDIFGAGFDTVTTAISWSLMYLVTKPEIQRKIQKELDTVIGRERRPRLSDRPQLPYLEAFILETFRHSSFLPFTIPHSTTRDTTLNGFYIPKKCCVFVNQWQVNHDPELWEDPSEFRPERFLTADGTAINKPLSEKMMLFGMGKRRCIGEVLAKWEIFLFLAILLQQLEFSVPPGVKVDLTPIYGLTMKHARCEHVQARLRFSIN

Cytochrome P450 3A4, sequence (P08684 whole entry): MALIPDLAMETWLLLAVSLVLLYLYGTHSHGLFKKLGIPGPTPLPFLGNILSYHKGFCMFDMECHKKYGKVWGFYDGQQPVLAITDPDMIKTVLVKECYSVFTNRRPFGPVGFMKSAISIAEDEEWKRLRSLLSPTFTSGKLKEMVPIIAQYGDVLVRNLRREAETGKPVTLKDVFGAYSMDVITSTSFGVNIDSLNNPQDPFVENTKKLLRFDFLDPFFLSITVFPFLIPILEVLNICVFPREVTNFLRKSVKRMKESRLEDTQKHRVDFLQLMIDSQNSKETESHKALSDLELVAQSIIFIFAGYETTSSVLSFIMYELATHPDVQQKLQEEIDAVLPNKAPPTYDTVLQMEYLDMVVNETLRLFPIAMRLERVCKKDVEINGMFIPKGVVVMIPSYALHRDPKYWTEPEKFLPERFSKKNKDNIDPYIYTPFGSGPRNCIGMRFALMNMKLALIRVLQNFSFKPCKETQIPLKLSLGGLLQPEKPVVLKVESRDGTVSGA

SMILES | EC50 [1] | EC50 [2] | further results
CCN1C(=O)[C@H]2[C@@H](c3ccc(-c4cccc(Cl)c4)cc3)N[C@@](Cc3ccccc3)(C(=O)OC)[C@H]2C1=O | 2.06 µM (active) | 14.6 µM (active) | 
CC(C)(C)C(=O)Nc1ccnc(-c2cccnc2)n1 |  |  | AC50 [3]: 2.51 µM (inconclusive)
CCOc1cc(/C=N/NC(=O)c2cc(-c3cccc(OC)c3)nc3ccccc23)ccc1O |  |  | AC50 [4]: 8.15 µM (active)
CCc1noc(C)c1C(=O)N1CCCC(C(=O)c2cc(F)ccc2OC)C1 (centres undefined) | 9.23 µM (active) | > 60 µM (not active) | 
O=C(Nc1cccc(-c2cn3cccnc3n2)c1)c1ccco1 | 0.941 µM (active) | > 30 µM (not active) | AC50 [3]: 25.1 µM (inconclusive)
O=C(NCc1cccnc1)c1sc2cc(Cl)ccc2c1Cl |  |  | AC50 [3]: 0.891 µM (inconclusive)
CCOC(=O)Cc1ccc(NCc2ccc(Cl)cc2)cc1 | 1.47 µM (active) | > 30 µM (not active) | 
CC(=O)N1CCN(C(=O)CC2OC(=O)c3ccccc32)CC1 (centres undefined) |  |  | AC50 [5]: 22.4 µM (inconclusive)
O=C(Nc1ccc(F)cc1F)N1CCCCC1c1cccnc1 (centres undefined) | 0.654 µM (active) | > 60 µM (not active) | 
CCC(CO)Oc1cc(NCc2ccc(C(C)(C)C)cc2)c2ncn(C(C)C)c2c1 (centres undefined) |  |  | AC50 [4]: 3.07 µM (active)
COc1ccc(-c2nc3cnc(N4CCN(C)CC4)nc3n(C)c2=O)cc1 |  |  | AC50 [5]: 25.1 µM (inconclusive)
CC(CN1CCN(C)CC1)OC(=O)c1ccc(Cl)cc1 (centres undefined) | 0.606 µM (active) | > 60 µM (not active) | 
COc1cc(OC)cc(C(=O)Nn2cc(C(=O)N3CCN(C)CC3)c3ccccc3c2=O)c1 |  |  | AC50 [3]: 28.2 µM (inconclusive); AC50 [5]: 10 µM (inconclusive)
COc1ccccc1CN1C[C@@H]2C[C@@H](c3ccc(C)c(C)c3)N3CCC[C@@]23C1=O | 2.26 µM (active) | > 30 µM (not active) | 
N#Cc1ccc(CN2CC[C@@]3(CCCNC3)C2)cc1 |  |  | AC50 [3]: 31.6 µM (inconclusive); AC50 [5]: 25.1 µM (inconclusive)
O=C(CN1CCOCC1)N/N=C/c1c(O)ccc2ccccc12 |  |  | AC50 [4]: 4.87 µM (active)

SMILES | EC50 [1] | EC50 [2] | further results
COc1ccc(N(C)S(=O)(=O)c2ccc3c(c2)CCC(=O)N3)cc1 |  |  | AC50 [3]: 3.55 µM (inconclusive); AC50 [5]: 0.01 µM (inconclusive)
O=C(O)c1ccccc1C(=O)Nc1cc2c(cc1Br)-c1ccccc1C2=O |  |  | AC50 [5]: 0.631 µM (inconclusive)
CCN(CC(=O)Nc1ccc(NC(C)=O)cc1)C(=O)CCCOc1ccc(C(C)(C)C)cc1 |  |  | AC50 [4]: 23.7 µM (active)
CN1CCCC2(CCN(C(=O)c3cnccn3)CC2)C1 |  |  | AC50 [3]: 25.1 µM (inconclusive)
COCCNC(=O)CSc1nc2ccc(N3CCOCC3)cc2c(=O)n1Cc1ccc(OC)cc1 |  |  | AC50 [5]: 15.8 µM (inconclusive)
O=C(CCN1CCN(Cc2ccccc2)CC1)Nc1cccc(Cl)c1 | 0.965 µM (active) | > 60 µM (not active) | 
CC(C)Cc1ccc(CN2CCC(n3nccc3NC(=O)C3CCCC3)CC2)cc1 | 0.313 µM (active) | > 60 µM (not active) | 
C=C(C)CSc1nc2sc3c(c2c(=O)n1-c1ccccc1)CCN(C)C3 | 0.197 µM (active) | > 30 µM (not active) | 
O=C(C1CCCN(Cc2cccc(Cl)c2)C1)N1CCCCC1 (centres undefined) | 0.167 µM (active) | > 30 µM (not active) | 
Cc1ccc(OC[C@H](O)[C@H](C)NC(C)C)c2c1CCC2 |  |  | AC50 [3]: 31.6 µM (inconclusive)
COCCn1c(SCC(=O)NC(=O)NCc2ccccc2)nc2ccccc21 | 1.14 µM (active) | > 60 µM (not active) | 
O=C(CN1CCC(C(O)(c2ccccc2)c2ccccc2)CC1)Nc1cc(Cl)ccc1Cl | 1.38 µM (active) | 9.41 µM (active) | 
COc1ccc(CCNC[C@H](O)c2ccc(O)cc2)cc1OC [DENOPAMINE] |  |  | AC50 [3]: 25.1 µM (inconclusive)
Cc1ccc(S(=O)(=O)c2ccccc2)cc1S | 0.983 µM (active) | > 30 µM (not active) | 
CC(C)[C@H](Sc1nc(N)nc2[nH]cnc12)C(=O)O |  |  | AC50 [5]: 0.316 µM (inconclusive)

— ChEMBL document CHEMBL1201862, “PubChem BioAssay data set” (2004)
